Test results: patent publication US20240158446A1, “CYCLIC COMPOUND HAVING SELECTIVE INHIBITORY ACTION ON KRAS OVER HRAS AND NRAS” (CHUGAI SEIYAKU KABUSHIKI KAISHA, priority 2021, published 2024)
Like-named read-outs stand apart in the source and are kept apart here. Where a SMILES comes first, the peptide text is derived from it. Bridges are numbered along the chain shown (N, C = ends). [ ]: non-standard residue; d: D form. The star is where a group is joined. hPhe(3-Cl-4-CF3) = N[C@@H](CCc1ccc(C(F)(F)F)c(Cl)c1)C(=O)O; NPrPhe(4-CF3) = CCCN[C@@H](Cc1ccc(C(F)(F)F)cc1)C(=O)O; NMeGly(cPent) = CN[C@H](C(=O)O)C1CCCC1; Gly(cPent) = N[C@H](C(=O)O)C1CCCC1; NMeD = CN[C@@H](CC(=O)O)C(=O)O; NMeL = CN[C@@H](CC(C)C)C(=O)O; Morpholide = C1CN(*)CCO1; Ac5c = NC1(C(=O)O)CCCC1; Aze = O=C(O)[C@@H]1CCN1; Sar = CNCC(=O)O

What was measured:
[1] = test system: human lung cancer strain NCI-H441;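 also: cell proliferation inhibition after four days measured by CellTiter-Glo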
[2] = target: GDP-bound HRAS wild-type protein (Homo sapiens, UniProt P01112); assay: Binding to HRAS by surface plasmon resonance (SPR), Single Cycle Kinetics; conditions: SPR
[3] = target: GDP-bound NRAS wild-type protein (Homo sapiens, UniProt P01111); assay: Binding to NRAS by surface plasmon resonance (SPR), Single Cycle Kinetics; conditions: SPR
[4] = GDP-bound HRAS wild-type protein vs GDP-bound KRAS wild-type protein
[5] = GDP-bound NRAS wild-type protein vs GDP-bound KRAS wild-type protein

Sequence of GDP-bound HRAS wild-type protein (P01112 whole entry): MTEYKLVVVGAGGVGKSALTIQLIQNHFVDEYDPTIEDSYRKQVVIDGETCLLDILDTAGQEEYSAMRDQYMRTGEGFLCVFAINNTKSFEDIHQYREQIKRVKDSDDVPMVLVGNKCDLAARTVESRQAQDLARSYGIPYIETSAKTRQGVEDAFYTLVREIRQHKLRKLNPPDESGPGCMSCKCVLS
Sequence of GDP-bound NRAS wild-type protein (P01111 whole entry): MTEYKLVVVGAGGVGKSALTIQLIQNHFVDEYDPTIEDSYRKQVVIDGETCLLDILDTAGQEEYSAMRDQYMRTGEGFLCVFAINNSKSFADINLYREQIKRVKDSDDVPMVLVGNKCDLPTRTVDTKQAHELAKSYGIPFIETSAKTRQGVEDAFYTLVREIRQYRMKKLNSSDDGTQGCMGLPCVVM

Compound | IC50 [1] | HRAS/KRAS (ratio of KD value for HRAS to KD value for KRAS) [2, 4] | NRAS/KRAS (ratio of KD value for NRAS to KD value for KRAS) [3, 5] | HRAS/KRAS (ratio of KD value with respect to HRAS to KD value with respect to KRAS) [2, 4] | NRAS/KRAS (ratio of KD value with respect to NRAS to KD value with respect to KRAS) [3, 5] | IC50 ([1]; read-out: NCI-H441 cell proliferation inhibitory activity, 50% proliferation inhibitory concentration (IC50 value), NCI-H441, four days, CellTiter-Glo) | ratio of the KD value with respect to GDP-bound HRAS wild-type protein to the KD value with respect to KRAS ([2]; KD(HRAS)/KD(KRAS)) | ratio of the KD value with respect to GDP-bound NRAS wild-type protein to the KD value with respect to KRAS ([3]; KD(NRAS)/KD(KRAS))
CCO[C@@H]1C[C@H]2C(=O)NC3(CCC3)C(=O)N(C)[C@@H](C3CCCC3)C(=O)N(C)[C@H](C(=O)N(C)C)CC(=O)N(C)[C@@H](Cc3ccccc3C)C(=O)N[C@@H]([C@@H](C)CC)C(=O)N(C)CC(=O)N(C)[C@H]3CCCCCN(C3=O)[C@@H](Cc3ccc(C(F)(F)F)cc3)C(=O)N(C)CC(=O)N[C@@H](CCc3cc(F)c(C(F)(F)F)c(F)c3)C(=O)N2C1 [PP0941] | 63.9 nM | B (a compound having 3 or more and less than 10 is denoted as B) | B (a compound having 3 or more and less than 10 is denoted as B) | – | – | – | – | –
CC[C@H](C)[C@@H]1NC(=O)[C@H](CC(C)C)N(C)C(=O)C[C@@H](C(=O)N(C)C)N(C)C(=O)[C@H](C2CCCC2)N(C)C(=O)C2(CCCC2)NC(=O)[C@@H]2CCCN2C(=O)[C@H](CCc2ccc(C(F)(F)F)c(Cl)c2)NC(=O)CN(C)C(=O)[C@H](Cc2ccc(C)cc2)N2CC/C=C(/C)C[C@@H](C2=O)N(C)C(=O)CN(C)C1=O [PP0616] | 73.8 nM | – | – | B (a compound having 3 or more and less than 10 is denoted as B) | B (a compound having 3 or more and less than 10 is denoted as B) | – | – | –
CC[C@H](C)[C@@H]1NC(=O)[C@@H]2CCCc3ccc(cc3)C[C@@H](C(=O)N(C)CC(=O)N[C@@H](CCc3ccc(C(F)(F)F)c(OC)c3)C(=O)N3C[C@H](OC(C)C)C[C@H]3C(=O)NC3(CC(C)(C)C3)C(=O)N(C)[C@@H](C3CCCC3)C(=O)N(C)[C@H](C(=O)N(C)CC)CC(=O)N2C)N2CC/C=C\C[C@@H](C2=O)N(C)C(=O)CN(C)C1=O [PP3084] | – | B (a compound having 3 or more and less than 10 is denoted as B) | A (a compound having 10 or more and less than 20 is denoted as A) | – | – | 3.7 nM | B (a compound having 3 or more and less than 10 is denoted as B) | A (a compound having 10 or more and less than 20 is denoted as A)
CCO[C@@H]1C[C@H]2C(=O)NC3(CCC3)C(=O)N(C)[C@@H](C3CCCC3)C(=O)N(C)[C@H](C(=O)N3CCOCC3)CC(=O)N(C)[C@@H](Cc3ccccc3)C(=O)N[C@@H]([C@@H](C)CC)C(=O)N(C)CC(=O)N(C)[C@H]3CCCCCN(C3=O)[C@@H](Cc3ccc(F)cc3)C(=O)N(C)CC(=O)N[C@@H](CCc3cc(F)c(C(F)(F)F)c(F)c3)C(=O)N2C1 [PP1181] | 26.3 nM | B (a compound having 3 or more and less than 10 is denoted as B) | B (a compound having 3 or more and less than 10 is denoted as B) | – | – | – | – | –
CCO[C@@H]1C[C@H]2C(=O)NC3(CCC3)C(=O)N(C)[C@@H](C3CCCC3)C(=O)N(C)[C@H](C(=O)N3CCOCC3)CC(=O)N(C)[C@@H](CC(C)C)C(=O)N[C@@H]([C@@H](C)CC)C(=O)N(C)CC(=O)N(C)[C@H]3CCCCCN(C3=O)[C@@H](Cc3nccs3)C(=O)N(C)CC(=O)N[C@@H](CCc3cc(F)c(C(F)(F)F)c(F)c3)C(=O)N2C1 [PP0923] | 445 nM | B (a compound having 3 or more and less than 10 is denoted as B) | B (a compound having 3 or more and less than 10 is denoted as B) | – | – | – | – | –
CCCN1C(=O)CN(C)C(=O)[C@@H]2CCN2C(=O)[C@H](C2CCCC2)NC(=O)[C@H](CC(C)C)N(C)C(=O)C[C@@H](C(=O)N2CCOCC2)N(C)C(=O)[C@H](C2CCCC2)N(C)C(=O)C2(CCCC2)NC(=O)[C@@H]2CCCN2C(=O)[C@H](CCc2ccc(C(F)(F)F)c(Cl)c2)NC(=O)CN(C)C(=O)[C@@H]1Cc1ccc(C(F)(F)F)cc1 [PP0306] ([NMeL][Gly(cPent)][Aze][Sar][NPrPhe(4-CF3)][Sar][hPhe(3-Cl-4-CF3)]P[Ac5c][NMeGly(cPent)][NMeD]-Morpholide; lactam N-11) | 142 nM | B (a compound having 3 or more and less than 10 is denoted as B) | B (a compound having 3 or more and less than 10 is denoted as B) | – | – | – | – | –
